How the values were obtained:
Motilin receptor [1] = biological target: T1, Motilin receptor (Homo sapiens, UniProt O43193); assay: Displacement of [125I]motilin from human motilin receptor expressed in CHO cells; format: cell-based
Motilin receptor [2] = biological target: T1, Motilin receptor; assay: Antagonist activity against human motilin receptor in aequoscreen cells assessed as inhibition of motilin induced calcium release by aequorin assay; format: functional, cell-based

T1 sequence (O43193 whole entry): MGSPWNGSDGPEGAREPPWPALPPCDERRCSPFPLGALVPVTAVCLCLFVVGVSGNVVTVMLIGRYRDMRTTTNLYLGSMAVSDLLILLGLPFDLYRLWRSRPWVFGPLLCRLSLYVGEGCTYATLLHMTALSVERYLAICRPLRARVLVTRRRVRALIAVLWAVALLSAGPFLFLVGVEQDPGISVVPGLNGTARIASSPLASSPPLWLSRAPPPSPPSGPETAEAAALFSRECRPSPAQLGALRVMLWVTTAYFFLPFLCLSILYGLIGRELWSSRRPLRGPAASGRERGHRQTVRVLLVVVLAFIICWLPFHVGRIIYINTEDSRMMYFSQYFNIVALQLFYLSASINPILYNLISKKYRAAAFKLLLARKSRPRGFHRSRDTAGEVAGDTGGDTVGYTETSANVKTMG

| Ki (Motilin receptor [1]) | IC50 (Motilin receptor [2]) | SMILES |
| --- | --- | --- |
| 6 nM | 3 nM | CNC[C@@H]1NC(=O)[C@@H](C(C)C)NC(=O)[C@@H](Cc2cccc(C(F)(F)F)c2)NCCOc2ccccc2CCCNC1=O |
| 62 nM | – | CC(C)[C@H]1NC(=O)[C@@H](Cc2cccc(Cl)c2)NCCOc2ccccc2CCCNC(=O)[C@H](Cn2ccnc2)NC1=O |
| 41 nM | – | CC(C)[C@H]1NC(=O)[C@@H](Cc2cccc(Cl)c2)NCCOc2ccccc2CCCNC(=O)[C@H](CNc2nccs2)NC1=O |
| 15 nM | 8 nM | CC(C)[C@H]1NC(=O)[C@@H](Cc2cccc(C(F)(F)F)c2)NCCOc2ccccc2CCCNC(=O)[C@H](CN)NC1=O |
| 342 nM | – | CC(C)[C@H]1NC(=O)[C@@H](Cc2ccc(O)cc2)NCCOc2ccccc2CCCNC(=O)[C@H](CCN)NC1=O |
| 1950 nM | – | CC(=O)NC[C@@H]1NC(=O)[C@@H](C(C)C)NC(=O)[C@@H](Cc2ccc(O)cc2)NCCOc2ccccc2CCCNC1=O |
| 4.6 nM | 2 nM | CC(C)[C@H]1NC(=O)[C@@H](Cc2cccc(C(F)(F)F)c2)NCCOc2ccccc2CCCNC(=O)[C@H](CN2CCCC2)NC1=O |
| 889 nM | – | CC(C)[C@H]1NC(=O)[C@@H](Cc2ccc(O)cc2)NCCOc2ccccc2/C=C/CNC(=O)[C@H](CCCN)NC1=O |
| 376 nM | – | CC(C)NC[C@@H]1NC(=O)[C@@H](C(C)C)NC(=O)[C@@H](Cc2ccc(O)cc2)NCCOc2ccccc2CCCNC1=O |
| 33 nM | – | CC(C)[C@H]1NC(=O)[C@@H](Cc2cccc(Cl)c2)NCCOc2ccccc2CCCNC(=O)[C@H](CCN=C(N)N)NC1=O |
| 23 nM | – | Cc1nnn(C[C@@H]2NC(=O)[C@@H](C(C)C)NC(=O)[C@@H](Cc3cccc(C(F)(F)F)c3)NCCOc3ccccc3CCCNC2=O)c1C |
| 16 nM | – | CC(C)[C@H]1NC(=O)[C@@H](Cc2ccc(Cl)cc2)NCCOc2ccccc2CCCNC(=O)[C@H](CN(C)C)NC1=O |
| 20 nM | – | CC(C)[C@H]1NC(=O)[C@@H](Cc2cccc(C(F)(F)F)c2)NCCOc2ccccc2CCCNC(=O)[C@H](CNc2ncccn2)NC1=O |
| 171 nM | – | CC(C)[C@H]1NC(=O)[C@@H](Cc2ccc(O)cc2)NCCOc2ccccc2CCCNC(=O)[C@H](CN)NC1=O |
| 18 nM | 56 nM | CC(C)[C@H]1NC(=O)[C@@H](Cc2cccc(Cl)c2)NCCOc2ccccc2CCCNC(=O)[C@H](Cn2cccn2)NC1=O |
| 6 nM | 28 nM | CC(C)[C@H]1NC(=O)[C@@H](Cc2cccc(C(F)(F)F)c2)NCCOc2ccccc2CCCNC(=O)[C@H](CNC(=N)N)NC1=O |
| 100 nM | – | CC(C)[C@H]1NC(=O)[C@@H](Cc2cccc(Cl)c2)NCCOc2ccccc2CCCNC(=O)[C@H](CN/C(N)=N/C#N)NC1=O |

The next lines start with the molecule.

| SMILES | Ki (Motilin receptor [1]) | IC50 (Motilin receptor [2]) |
| --- | --- | --- |
| CC(C)[C@H]1NC(=O)[C@@H](Cc2cccc(Cl)c2)NCCOc2ccccc2CCCNC(=O)[C@H](CN)NC1=O | 64 nM | – |
| Cc1cnnn1C[C@@H]1NC(=O)[C@@H](C(C)C)NC(=O)[C@@H](Cc2cccc(C(F)(F)F)c2)NCCOc2ccccc2CCCNC1=O | 17 nM | – |
| CC(C)[C@H]1NC(=O)[C@@H](Cc2ccc(Cl)cc2)NCCOc2ccccc2CCCNC(=O)[C@H](CN)NC1=O | 60 nM | – |
| CC(C)[C@H]1NC(=O)[C@@H](Cc2cccc(Cl)c2)NCCOc2ccccc2CCCNC(=O)[C@H](CN=C2NCCN2)NC1=O | 51 nM | – |
| CC(C)[C@H]1NC(=O)[C@@H](Cc2cccc(Cl)c2)NCCOc2ccccc2CCCNC(=O)[C@H](CN(C)C)NC1=O | 27 nM | 95 nM |
| CC(C)[C@H]1NC(=O)[C@@H](Cc2cccc(Cl)c2)NCCOc2ccccc2CCCNC(=O)[C@H](CCC(=N)N)NC1=O | 27 nM | – |
| CC(C)[C@H]1NC(=O)[C@@H](Cc2cccc(Cl)c2)NCCOc2ccccc2CCCNC(=O)[C@H](CN=C(N)N)NC1=O | 57 nM | – |
| CNC[C@@H]1NC(=O)[C@@H](C(C)C)NC(=O)[C@@H](Cc2ccc(Cl)cc2)NCCOc2ccccc2CCCNC1=O | 31 nM | 33 nM |
| CC(C)[C@H]1NC(=O)[C@@H](Cc2ccc(Cl)cc2)NCCOc2ccccc2CCCNC(=O)[C@H](CNC(N)=O)NC1=O | 543 nM | – |
| CC(C)[C@H]1NC(=O)[C@@H](Cc2cccc(F)c2)NCCOc2ccccc2CCCNC(=O)[C@H](Cc2cscn2)NC1=O | 116 nM | – |
| CC(C)[C@H]1NC(=O)[C@@H](Cc2ccc(Cl)cc2)NCCOc2ccccc2CCCNC(=O)[C@H](CN=C(N)N)NC1=O | 6 nM | – |
| Cc1nnnn1C[C@@H]1NC(=O)[C@@H](C(C)C)NC(=O)[C@@H](Cc2cccc(C(F)(F)F)c2)NCCOc2ccccc2CCCNC1=O | 21 nM | – |
| CC(C)[C@H]1NC(=O)[C@@H](Cc2cccc(Cl)c2)NCCOc2ccccc2CCCNC(=O)[C@H](CNC2=NCCCN2)NC1=O | 87 nM | – |

Reference: ChEMBL document CHEMBL1149541, “Potent macrocyclic antagonists to the motilin receptor presenting novel unnatural amino acids” (Bioorg Med Chem Lett, 2007)
